Entries after “also recorded” stand apart in the source; their conditions may differ.
Assays:
formalin-treated mice = experiment: Formalin assay, licking behaviour; type: in vivo; conditions: 30 mg/kg i.p. 30 min before formalin injection
Experimental: The formalin assay in mice is a valid and reliable behavioral model of nociception and is sensitive to various classes of analgesic drugs (Hunskaar S & Hole K, Pain. 1987, 30(1):103-14.) The noxious stimulus consists of a subcutaneous or an intraplantar injection of 10 μl diluted formalin (2% in saline) into the left hind paw. The response is licking and flinching of the injected paw.
Age, sex and weight matched wildtype mice (C3HeB/FeJ) were used in this assay. Prior to formalin injection, the animals were randomly subdivided into experimental groups of 10 animals each. […]
For formalin injection, the mouse was held with a paper towel in order to avoid disturbance of the injection by movements. […] The behavior of the formalin- and CDK-inhibitor-treated mice was analyzed as described below.
The behaviour of the formalin-treated mice, i.e. licking and flinching, was monitored by an automated tracking system (Ethovision 3.0 Color Pro, Noldus, Wageningen, Netherlands) over a defined period of time: measurement was initiated 5 min after formalin injection and terminated 30 min after formalin injection. […]
As another possibility of assay read-out, the licking behaviour of the individual animals was tracked manually based on video files. Licking times were recorded over 30 minutes after formalin injection and subdivided for three different licking zones (dorsum, plantar, toes). […]

CDK6/CycD1 = target: T1, CDK6/CycD1 (Homo sapiens, UniProt Q00534); experiment: In vitro kinase inhibition assay, CDK6/CycD1; type: biochemical
T1 construct: host or cells: Sf9 insect cells, baculovirus
Experimental: In vitro kinase inhibition assays may be performed according to the following protocol:
Compounds are used as 1×10^−02 M stock solutions in 100% DMSO, 100 μl each in column 2 of three 96-well V-shaped microtiter plates (in the following, said plates are referred to as “master plates”).
Subsequently, the 1×10^−02 M stock solutions in column 2 of the master plates are subjected to a serial, semi-logarithmic dilution using 100% DMSO as a solvent, resulting in 10 different concentrations, the dilution endpoint being 3×10^−07 M/100% DMSO in column 12. Column 1 and 7 are filled with 100% DMSO as controls. […]
For the determination of inhibitory profiles, the following protein kinases were used: CDK2/CycA, CDK4/CycD1, CDK6/CycD1 and CDK9/CycT. […] The purity of each kinase is determined by SDS-PAGE/silver staining and the identity of each kinase is verified by western blot analysis with kinase specific antibodies or by mass spectroscopy. […]
Reaction mixtures are incubated at 30° C. for 80 minutes. […] Incorporation of ^33P is determined with a microplate scintillation counter (Microbeta, Wallac). […]
The median value of the counts in column 1 (n=8) of each assay plate is defined as “low control”. This value reflects unspecific binding of radioactivity to the plate in the absence of a protein kinase but in the presence of the substrate. […]

T1 sequence (Q00534 whole entry): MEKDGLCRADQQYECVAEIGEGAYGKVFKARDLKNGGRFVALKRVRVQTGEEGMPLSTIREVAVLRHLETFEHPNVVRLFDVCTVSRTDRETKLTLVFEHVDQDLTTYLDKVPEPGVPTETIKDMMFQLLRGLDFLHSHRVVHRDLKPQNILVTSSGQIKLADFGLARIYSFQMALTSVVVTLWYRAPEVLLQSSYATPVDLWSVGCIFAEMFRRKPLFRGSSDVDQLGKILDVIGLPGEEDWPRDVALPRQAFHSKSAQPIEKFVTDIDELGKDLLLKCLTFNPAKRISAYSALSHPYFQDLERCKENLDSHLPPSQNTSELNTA
T1 sequence (P24385 whole entry partner): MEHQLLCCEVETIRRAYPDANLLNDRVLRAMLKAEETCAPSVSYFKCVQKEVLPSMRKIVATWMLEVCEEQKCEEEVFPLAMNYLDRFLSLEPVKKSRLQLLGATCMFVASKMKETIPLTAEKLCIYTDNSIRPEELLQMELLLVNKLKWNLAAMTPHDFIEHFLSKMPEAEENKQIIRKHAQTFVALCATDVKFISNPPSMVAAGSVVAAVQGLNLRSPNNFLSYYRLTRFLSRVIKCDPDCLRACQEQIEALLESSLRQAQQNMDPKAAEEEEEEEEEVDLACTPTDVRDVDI

**Q.** Which “fluorescent dot size of the formalin-treated paw” value (formalin-treated mice) does the source give for COc1ccccc1-c1cc(Nc2cccc(S(N)(=O)=O)c2)ncn1 [Compound A] here?
**A.** Its value is “no significant reduction of fluorescent dot size”.

**Q.** What about the licking time (formalin-treated mice; vs vehicle, 30 mg/kg) of the same compound?
**A.** The licking time was “reduction in licking time; also recorded: clearly reduced”.

**Q.** And the IC50 (CDK6/CycD1)?
**A.** The IC50 was 1910 nM.
